Values of other authors in patent publication US20200061053A1, “PHARMACEUTICAL COMPOSITION AND METHOD FOR ACUTE ON CHRONIC LIVER FAILURE AND RELATED LIVER DISEASES” (priority 2018, published 2020).

Key:
liver = conditions: in vivo
[1] = laboratory test indicators, liver failure patients, TMZ 20 mg three times a day

Compound: COc1ccc(CN2CCNCC2)c(OC)c1OC.Cl.Cl [TMZ, 1-[2,3,4-trimethoxybenzyl] piperazine dihydrochloride]
- 30-day immortality rate of liver failure patients (liver failure patients; TMZ tablets 20 mg orally, three times a day, 4-week course, hospitalized liver failure patients, traditional therapeutic approach 44%): approximately 18%
- 90-day immortality rate of liver failure patients (liver failure patients; TMZ tablets 20 mg orally, three times a day, 4-week course, hospitalized liver failure patients, traditional therapeutic approach 68%): 35%
- decrease rate of alanine aminotransferase (liver failure patients; [1]): significantly raise the decrease rate
- decrease rate of aspartate transaminase (liver failure patients; [1]): significantly raise the decrease rate
- maintaining liver functions and decreasing transaminase levels (alanine aminotransferase, aspartate transaminase) (liver failure patients; patients suffering from liver diseases and conditions, clinical research and trial results): significant effects in maintaining liver functions and decreasing transaminase levels
- liver toxicity (liver): minimal liver toxicity
